Source: US9650340B2, “5-fluoro-N-(pyridin-2-yl)pyridin-2-amine derivatives containing a sulfoximine group” (BAYER PHARMA AKTIENGESELLSCHAFT, priority 2012, dated 2017)
Like-named read-outs stand apart in the source and are kept apart here.

Legend:
[1] = tested on: Caco-2, human colorectal carcinoma cells; experiment: Proliferation assay, Caco-2 (crystal violet); format: cell-based; conditions: Caco-2, 4 days, read-out: Inhibition of Caco-2 cell proliferation IC50
Method: (§1) Cultivated tumour cells (HeLa, human cervical tumour cells, ATCC CCL-2; NCI-H460, human non-small cell lung carcinoma cells, ATCC HTB-177; A2780, human ovarian carcinoma cells, ECACC #93112519; DU 145, hormone-independent human prostate carcinoma cells, ATCC HTB-81; HeLa-MaTu-ADR, multidrug-resistant human cervical carcinoma cells, EPO-GmbH Berlin; Caco-2, human colorectal carcinoma cells, ATCC HTB-37; B16F10, mouse melanoma cells, ATCC CRL-6475) were plated at a density of 5,000 cells/well (DU145, HeLa-MaTu-ADR), 3,000 cells/well (NCI-H460, HeLa), 2,500 cells/well (A2780), 1,500 cells/well (Caco-2), or 1,000 cells/well (B16F10) in a 96-well multititer plate in 200 μL of their respective growth medium supplemented 10% fetal calf serum. After 24 hours, the cells of one plate (zero-point plate) were stained with crystal violet (see below), while the medium of the other plates was replaced by fresh culture medium (200 μl), to which the test substances were added in various concentrations (0 μM, as well as in the range of 0.001-10 μM; the final concentration of the solvent dimethyl sulfoxide was 0.5%). The cells were incubated for 4 days in the presence of test substances. Cell proliferation was determined by staining the cells with crystal violet: the cells were fixed by adding 20 μl/measuring point of an 11% glutaric aldehyde solution for 15 minutes at room temperature. After three washing cycles of the fixed cells with water, the plates were dried at room temperature. The cells were stained by adding 100 μl/measuring point of a 0.1% crystal violet solution (pH 3.0). After three washing cycles of the stained cells with water, the plates were dried at room temperature. The dye was dissolved by adding 100 μl/measuring point of a 10% acetic acid solution. The extinction was determined by photometry at a wavelength of 595 nm. The change of cell number, in percent, was calculated by normalization of the measured values to the extinction values of the zero-point plate (=0%) and the extinction of the untreated (0 μm) cells (=100%). The IC50 values (inhibitory concentration at 50% of maximal effect) were determined by means of a 4 parameter fit. Non-adherent MOLM-13 human acute myeloid leukemia cells (DSMZ ACC 554) were seeded at a density of 5,000 cells/well in a 96-well multititer plate in 100 μL of growth medium supplemented 10% fetal calf serum. After 24 hours, cell viability of one plate (zero-point plate) was determined with the Cell Titre-Glo Luminescent Cell Viability Assay (Promega), while 50 μL of test compound containing medium was added to the wells of the other plates (final concentrations in the range of 0.001-10 μM and DMSO controls; the final concentration of the solvent dimethyl sulfoxide was 0.5%). Cell viability was assessed after 72-hour exposure with the Cell Titre-Glo Luminescent Cell Viability Assay (Promega).

[2] = tested on: DU 145, hormone-independent human prostate carcinoma cells; experiment: Proliferation assay, DU145 (crystal violet); format: cell-based; conditions: DU145, 4 days, read-out: Inhibition of DU145 cell proliferation IC50
Method: as §1

[3] = target: T1, CDK2/CycE (Homo sapiens, UniProt P24941); experiment: CDK2/CycE high ATP kinase assay (TR-FRET, 2 mM ATP); format: biochemical; conditions: Method 2b
T1 construct: GST; purchased ProQinase GmbH (Freiburg, Germany); host or cells: insect cells (Sf9)
Method: 2b. CDK2/CycE High ATP Kinase Assay:
CDK2/CycE-inhibitory activity of compounds of the present invention at 2 mM adenosine-tri-phosphate (ATP) was quantified employing the CDK2/CycE TR-FRET (TR-FRET=Time Resolved Fluorescence Energy Transfer) assay as described in the following paragraphs.
Recombinant fusion proteins of GST and human CDK2 and of GST and human CycE, expressed in insect cells (Sf9) and purified by Glutathion-Sepharose affinity chromatography, were purchase from ProQinase GmbH (Freiburg, Germany). As substrate for the kinase reaction biotinylated peptide biotin-Ttds-[…] (C-terminus in amid form) was used which can be purchased e.g. form the company JERINI peptide technologies (Berlin, Germany).
For the assay 50 nl of a 100 fold concentrated solution of the test compound in DMSO was pipetted into a black low volume 384 well microtiter plate (Greiner Bio-One, Frickenhausen, Germany), 2 μl of a solution of CDK2/CycE in aqueous assay buffer [50 mM Tris/HCl pH 8.0, 10 mM MgCl2, 1.0 mM dithiothreitol, 0.1 mM sodium ortho-vanadate, 0.01% (v/v) Nonidet-P40 (Sigma)] were added and the mixture was incubated for 15 min at 22° C. to allow pre-binding of the test compounds to the enzyme before the start of the kinase reaction. Then the kinase reaction was started by the addition of 3 μl of a solution ATP (3.33 mM=>final conc. in the 5 μl assay volume is 2 mM) and substrate (1.25 μM=>final conc. in the 5 μl assay volume is 0.75 μM) in assay buffer and the resulting mixture was incubated for a reaction time of 25 min at 22° C. The concentration of CDK2/CycE was adjusted depending of the activity of the enzyme lot and was chosen appropriate to have the assay in the linear range, typical concentrations were in the range of 15 ng/ml. The reaction was stopped by the addition of 5 μl of a solution of TR-FRET detection reagents (0.2 μM streptavidine-XL665 [Cisbio Bioassays, Codolet, France] and 1 nM anti-RB(pSer807/pSer811)-antibody from BD Pharmingen [#558389] and 1.2 nM LANCE EU-W1024 labeled anti-mouse IgG antibody [Perkin-Elmer, product no. AD0077, as an alternative a Terbium-cryptate-labeled anti-mouse IgG antibody from Cisbio Bioassays can be used]) in an aqueous EDTA-solution (100 mM EDTA, 0.2% (w/v) bovine serum albumin in 100 mM HEPES/NaOH pH 7.0).
The resulting mixture was incubated 1 h at 22° C. to allow the formation of complex between the phosphorylated biotinylated peptide and the detection reagents. Subsequently the amount of phosphorylated substrate was evaluated by measurement of the resonance energy transfer from the Eu-chelate to the streptavidine-XL. Therefore, the fluorescence emissions at 620 nm and 665 nm after excitation at 350 nm were measured in a TR-FRET reader, e.g. a Rubystar (BMG Labtechnologies, Offenburg, Germany) or a Viewlux (Perkin-Elmer). The ratio of the emissions at 665 nm and at 622 nm was taken as the measure for the amount of phosphorylated substrate.

[4] = tested on: HeLa-MaTu-ADR, multidrug-resistant human cervical carcinoma cells; experiment: Proliferation assay, HeLa-MaTu-ADR (crystal violet); format: cell-based; conditions: 4 days, read-out: Inhibition of HeLa-MaTu-ADR cell proliferation IC50
Method: as §1

`COc1cc(F)ccc1-c1cc(Nc2cc(CS(C)(=N)=O)c(Br)c(C)n2)ncc1F` (racemic) [Example 5, (rac)-5-Bromo-N-[5-fluoro-4-(4-fluoro-2-methoxyphenyl)pyridin-2-yl]-6-methyl-4-[(S-methylsulfonimidoyl)methyl]pyridin-2-amine] showed an IC50 ([1]; Homo sapiens, Caco-2, 96 h) of 0.11 µM, an IC50 ([2]; Homo sapiens, DU-145, 96 h) of 0.11 µM and an IC50 [3] of 1.77 µM.

`CCOC(=O)N=S(C)(=O)Cc1cc(Nc2cc(-c3ccc(F)cc3OC)c(F)cn2)nc(OC)c1` (racemic) [Example 15, (rac)-ethyl{[(2-{[5-fluoro-4-(4-fluoro-2-methoxyphenyl)pyridin-2-yl]amino}-6-methoxypyridin-4-yl)methyl](methyl)oxido-λ^6-sulfanylidene}carbamate] gave an IC50 ([1]; Homo sapiens, Caco-2, 96 h) of 0.039 µM, an IC50 ([2]; Homo sapiens, DU-145, 96 h) of 0.031 µM and an IC50 [3] of 0.123 µM. For the same compound, the IC50 ([4]; Homo sapiens, 96 h) was 0.031 µM.

`COc1cc(F)ccc1-c1cc(Nc2cc(CS(C)(=O)=NC(=O)C(F)(F)F)cc(F)n2)ncc1F` (racemic) [Example 18, (rac)-2,2,2-Trifluoro-N-{[(2-fluoro-6-{[5-fluoro-4-(4-fluoro-2-methoxyphenyl)pyridin-2-yl]amino}pyridin-4-yl)methyl](methyl)oxido-λ^6-sulfanylidene}acetamide] gave an IC50 ([1]; Homo sapiens, Caco-2, 96 h) of 0.043 µM, an IC50 ([2]; Homo sapiens, DU-145, 96 h) of 0.041 µM and an IC50 ([4]; Homo sapiens, 96 h) of 0.035 µM.

`CCOc1cc(F)ccc1-c1cc(Nc2cc(CS(C)(=O)=NC(=O)C(F)(F)F)cc(F)n2)ncc1F` (racemic) [Example 27, (rac)-N-{[(2-{[4-(2-Ethoxy-4-fluoro-phenyl)-5-fluoropyridin-2-yl]amino}-6-fluoropyridin-4-yl)methyl]-(methyl)oxido-λ^6-sulfanylidene}-2,2,2-trifluoroacetamide] gave an IC50 ([1]; Homo sapiens, Caco-2, 96 h) of 0.13 µM, an IC50 ([2]; Homo sapiens, DU-145, 96 h) of 0.11 µM and an IC50 [3] of no less than 20 µM. The IC50 ([4]; Homo sapiens, 96 h) was 0.11 µM.

`CCS(=N)(=O)Cc1ccnc(Nc2cc(-c3ccc(F)cc3OC)c(F)cn2)c1` (racemic) [Example 30, (rac)-N-{4-[(S-Ethylsulfonimidoyl)-methyl]pyridin-2-yl}-5-fluoro-4-(4-fluoro-2-methoxyphenyl)pyridin-2-amine] showed an IC50 ([1]; Homo sapiens, Caco-2, 96 h) of 0.052 µM, an IC50 ([2]; Homo sapiens, DU-145, 96 h) of 0.082 µM and an IC50 [3] of 0.3 µM. For the same compound, the IC50 ([4]; Homo sapiens, 96 h) was 0.074 µM.

Compound `COc1cc(F)ccc1-c1cc(Nc2cc(CS(C)(=N)=O)cc(C(F)F)n2)ncc1F` (racemic) [Example 31, (rac)-N-{6-(Difluoromethyl)-4-[(S-methylsulfonimidoyl)methyl]pyridin-2-yl}-5-fluoro-4-(4-fluoro-2-methoxyphenyl)pyridin-2-amine] has an IC50 [3] of 0.229 µM.

For `COc1cc(F)ccc1-c1cc(Nc2cc(CS(C)(=N)=O)cc(F)n2)ncc1F` (single isomer, unassigned; (+)) [Example 19, (+)-5-Fluoro-4-(4-fluoro-2-methoxyphenyl)-N-{6-fluoro-4-[(S-methylsulfonimidoyl)methyl]pyridin-2-yl}pyridin-2-amine], the IC50 ([2]; Homo sapiens, DU-145, 96 h) was 0.058 µM, the IC50 [3] was 1.37 µM and the IC50 ([4]; Homo sapiens, 96 h) was 0.064 µM.

Work on `COc1cc(F)ccc1-c1cc(Nc2cc(CS(C)(=O)=NC(=O)C(F)(F)F)cc(C(F)(F)F)n2)ncc1F` (single isomer, unassigned; (+)) [Example 24, (+)-2,2,2-Trifluoro-N-[{[2-{[5-fluoro-4-(4-fluoro-2-methoxyphenyl)pyridin-2-yl]amino}-6-(trifluoromethyl)-pyridin-4-yl]methyl}(methyl)oxido-λ^6-sulfanylidene]acetamide] yielded an IC50 ([1]; Homo sapiens, Caco-2, 96 h) of 0.041 µM, an IC50 ([2]; Homo sapiens, DU-145, 96 h) of 0.033 µM and an IC50 [3] of 4 µM. The IC50 ([4]; Homo sapiens, 96 h) was 0.03 µM.

Work on `CCOc1cc(F)ccc1-c1cc(Nc2cc(CS(C)(=N)=O)cc(F)n2)ncc1F` (single isomer, unassigned; (+)) [Example 28, (+)-4-(2-Ethoxy-4-fluorophenyl)-5-fluoro-N-{6-fluoro-4-[(S-methylsulfonimidoyl)methyl]pyridin-2-yl}pyridin-2-amine] yielded an IC50 ([1]; Homo sapiens, Caco-2, 96 h) of 0.12 µM, an IC50 ([2]; Homo sapiens, DU-145, 96 h) of 0.12 µM and an IC50 [3] of 1.17 µM. The IC50 ([4]; Homo sapiens, 96 h) was 0.12 µM.

`COc1cc(F)ccc1-c1cc(Nc2cc(CS(C)(=N)=O)cc(F)n2)ncc1F` (single isomer, unassigned; (-)) [Example 20, (−)-5-Fluoro-4-(4-fluoro-2-methoxyphenyl)-N-{6-fluoro-4-[(S-methylsulfonimidoyl)methyl]pyridin-2-yl}pyridin-2-amine] gave an IC50 ([1]; Homo sapiens, Caco-2, 96 h) of 0.045 µM, an IC50 [2] of 0.058 µM and an IC50 [3] of 0.815 µM. The IC50 [4] was 0.038 µM.

`COc1cc(F)ccc1-c1cc(Nc2cc(CS(C)(=O)=NC(=O)C(F)(F)F)cc(C(F)(F)F)n2)ncc1F` (single isomer, unassigned; (-)) [Example 25, (−)-2,2,2-Trifluoro-N-[{[2-{[5-fluoro-4-(4-fluoro-2-methoxyphenyl)pyridin-2-yl]amino}-6-(trifluoromethyl)-pyridin-4-yl]methyl}(methyl)oxido-λ^6-sulfanylidene]acetamide] was tested, and the IC50 [1] was 0.045 µM, the IC50 [2] was 0.037 µM and the IC50 [3] was 2.64 µM. It also gave an IC50 [4] of 0.03 µM.

For `CCOc1cc(F)ccc1-c1cc(Nc2cc(CS(C)(=N)=O)cc(F)n2)ncc1F` (single isomer, unassigned; (-)) [Example 29, (−)-4-(2-Ethoxy-4-fluorophenyl)-5-fluoro-N-{6-fluoro-4-[(S-methylsulfonimidoyl)methyl]pyridin-2-yl}pyridin-2-amine], the IC50 [1] was 0.1 µM, the IC50 [2] was 0.11 µM and the IC50 [3] was 1.71 µM. The IC50 [4] was 0.081 µM.
